Laboratory results from patent US5506354A, “Imidazolylpiperazinyl steroids” (The Upjohn Company, priority 1992, dated 1996).
Counter-ions that a name gives are not always drawn.

Tested on: arachidonic acid
Experiment: Arachidonic Acid Antagonism Assay (AAAA), LD50 of sodium arachidonate
Assay type: in vivo, Charles River male CF-1 mice
Details: test compound IV 15 min before sodium arachidonate; LD50 outside 95% confidence interval of control
Procedure: Since these metabolites contribute to the pathological problems associated with stroke, spinal trauma and head injury, compounds which antagonize arachidonic acid are useful in treating stroke, spinal trauma and head injury.
While not necessary to determine arachidonic acid antagonism, the above assay has been modified as follows: Charles River male CF-1 mice weighing 18-22 g are treated IV with the test compound dissolved in 1.0% Tween-80 and 0.1% hydrochloric acid in distilled water, 0.2 ml total volume. Fifteen minutes later sodium arachidonate (90% pure) in physiological (normal) saline is injected into the tail vein. The LD50 is measured using the Spearman-Karber method with a log dose interval of 0.05 (N=6). Compounds which elevate the LD50 outside of the 95% confidence interval of the control LD50 are considered to be "active".

Compound	arachidonic acid antagonism (activity in words)
CCN(CC)c1cc(N2CCN(CC(=O)[C@@]3(O)CC[C@H]4[C@@H]5CCC6=CC(=O)C=C[C@]6(C)C5=CC[C@@]43C)CC2)nc(N(CC)CC)n1.Cl.Cl.O [Example 75, 21-[4-[2,6-bis(diethylamino)4-pyrimidinyl]-1-piperazinyl]-17α-hydroxypregna-1,4,9(11)-triene-3,20-dione dihydrochloride hydrate]	demonstrate arachidonic acid antagonism
CN1CCN(c2cc(N3CCN(CC(=O)[C@@]4(O)CC[C@H]5[C@@H]6CCC7=CC(=O)CC[C@]7(C)C6=CC[C@@]54C)CC3)nc(N3CCN(C)CC3)n2)CC1 [Example 19, 17α-Hydroxy-21-[4-[2,6-bis(4-methyl-1-piperazinyl)A-pyrimidinyl]-1-piperazinyl]-pregna-4,9(11)-diene-3,20-dione methanesulfonate hydrate]	demonstrate arachidonic acid antagonism
COc1ccc(CCN(CC(=O)[C@@]2(O)CC[C@H]3[C@@H]4CCC5=CC(=O)CC[C@]5(C)C4=CC[C@@]32C)Cc2ccc(N(C)C)cc2)cc1OC [Example 51, 17α-hydroxy-21-[[2-(3,4-dimethoxyphenyl)ethyl]-4-(dimethylamino)-phenyl]methyl]amino]pregna-4,9(11)-3,20-dione hydrochloride]	demonstrate arachidonic acid antagonism
C[C@]12C=CC(=O)C=C1CC[C@@H]1[C@@H]2[C@@H](O)C[C@@]2(C)[C@H]1CC[C@]2(O)C(=O)CN1CCN(c2ccccn2)CC1 [Example 25, 11.uparw.,17α-dihydroxy-21-[4-(2-pyridinyl)-1-piperazinyl]pregna-1,4-diene-3,20-dione dihydrochloride]	demonstrate arachidonic acid antagonism
C[C@]12CCC(=O)C=C1CC[C@@H]1[C@@H]2[C@H](O)C[C@@]2(C)[C@H]1CC[C@]2(O)C(=O)CN1CCN(c2ccc(F)cc2)CC1 [Example 29, 21-[4-(4-fluorophenyl)-1-piperazinyl]-11α,17α-dihydroxypregn-4-ene-3,20-dione dihydrochloride]	demonstrate arachidonic acid antagonism
C[C@]12CC(=O)[C@H]3[C@@H](CCC4=CC(=O)CC[C@@]43C)[C@@H]1CC[C@@H]2C(=O)CN1CCN(c2ccccn2)CC1.Cl.O [Example 45, 21-[4-(2-pyridinyl)-1-piperazinyl]pregn-4-ene-3,11,20-trione hydrochloride hydrate]	demonstrate arachidonic acid antagonism
C[C@]12CCC(=O)C=C1CC[C@@H]1C2=CC[C@@]2(C)[C@H]1CC[C@]2(O)C(=O)CN1CCN(Cc2ccccn2)CC1 [Example 54, 17α-hydroxy-21-[4-(2-pyridinylmethyl)-1-piperazinyl]-pregna-4,9(11)-diene-3,20-dione (E)-2-butenedioate 1:1 salt]	demonstrate arachidonic acid antagonism
C[C@]12C=CC(=O)C=C1CC[C@@H]1C2=CC[C@@]2(C)[C@H]1CC[C@]2(O)C(=O)CN1CCN(c2cc(N3CCCC3)nc(N3CCCC3)n2)CC1.Cl.Cl.O [Example 74, 17α-hydroxy-21-[4-[2,6-di-(1-pyrrolidinyl)-4-pyrimidinyl]-1-piperazinyl] pregna-1,4,9(11)-triene-3,20-dione dihydrochloride hydrate]	demonstrate arachidonic acid antagonism
CCN(CC)c1cc(N2CCN(CC(=O)[C@@]3(O)CC[C@H]4[C@@H]5CCC6=CC(=O)CC[C@]6(C)[C@H]5CC[C@@]43C)CC2)nc(N(CC)CC)n1 [Example 53, 21-[4-[2,6-bis(diethylamino)4-pyrimidinyl]-1-piperazinyl]-17α-hydroxypregn-4-ene-3,20-dione]	demonstrate arachidonic acid antagonism
C[C@]12CCC(=O)C=C1CC[C@@H]1C2=CC[C@@]2(C)[C@H]1CC[C@]2(O)C(=O)CN1CCOCC1 [Example 93, 17α-hydroxy-21-(4-morpholino)-pregna4,9(11)-diene-3,20-dione (E)-2-butanedioate (1:1) salt]	demonstrate arachidonic acid antagonism
C=CCNc1nc(NCC=C)nc(N2CCN(CC(=O)[C@@]3(O)CC[C@H]4[C@@H]5CCC6=CC(=O)CC[C@]6(C)C5=CC[C@@]43C)CC2)n1.Cl.Cl.O [Example 60, 17α-hydroxy-21-[4-[4,6-bis(2-propenylamino)-1,3,5-triazin-2-yl]-1-piperazinyl]pregna-4,9(11)-diene-3,20-dione dihydrochloride hydrate]	demonstrate arachidonic acid antagonism

Tested on: angiogenesis
Experiment: Chick embryo assay of Folkman (inhibition of angiogenesis / tumor growth)
Assay type: in vivo
Details: 50 μg/10 μl in the presence of heparin
Procedure: According to this procedure compounds which are considered to be "active" (i.e. antiangiogenic) give an avascular zone of 4 mm or greater in some embryos when tested at 50 μg/10 μl in the presence of 50 μg/10μ of heparin.

Compound	% of Embryos with 4 mm or Greater Avascular Zone [%]	inhibition of angiogenesis (activity in words)
CCN(CC)c1cc(N2CCN(CC(=O)[C@@]3(O)CC[C@H]4[C@@H]5CCC6=CC(=O)CC[C@]6(C)C5=CC[C@@]43C)CC2)nc(N(CC)CC)n1 [Example 16, 17α-Hydroxy-21-[4-[2,6-bis(diethylamino)pyrimidinyl]-1-piperazinyl]pregna-4,9(11)-diene-3,20-dione dihydrochloride hydrate]	91	
COc1ccc(N2CCN(CC(=O)[C@@]3(O)CC[C@H]4[C@@H]5C[C@H](C)C6=CC(=O)C=C[C@]6(C)[C@H]5[C@@H](O)C[C@@]43C)CC2)cc1 [Example 33, 11β,17α-dihydroxy-21-[4-(4-methoxyphenyl)-1-piperazinyl]-6α-methylpregna-1,4-diene-3,20-dione dihydrochloride]		demonstrate inhibition of angiogenesis
CC(C)(C)CC(=O)O[C@@H]1C[C@@]2(C)[C@@H](CC[C@]2(O)C(=O)CN2CCN(c3ccccn3)CC2)[C@@H]2CCC3=CC(=O)CC[C@]3(C)[C@H]21 [Example 28, 11α,17α-Dihydroxy-21-[4-(2-pyridinyl)-1-piperazinyl]pregn-4-ene-3,20-dione 11-(3,3-dimethyl-1-butyratedihydrochloride]	73	
COc1ccc(N2CCN(CC(=O)[C@@]3(O)CC[C@H]4[C@@H]5CCC6=CC(=O)CC[C@]6(C)[C@H]5[C@H](OC(=O)CC(C)(C)C)C[C@@]43C)CC2)cc1 [Example 32, 11α,17α-dihydroxy-21-[4-(4-methoxyphenyl)-1-piperazinyl]pregn-4-ene-3,20-dione 11-(3,3-dimethyl-1-butyrate) dihydrochloride]		demonstrate inhibition of angiogenesis
C[C@]12CCC(=O)C=C1CC[C@@H]1C2=CC[C@@]2(C)[C@H]1CC[C@]2(O)C(=O)CN1CCN(C(=O)c2ccco2)CC1 [Example 6B, 17α-Hydroxy-21-[4-(2-furonylcarbonyl)-1-piperazinyl]pregna-4,9(11)-diene-3,20-dione]		demonstrate inhibition of angiogenesis
C[C@H]1C[C@H]2[C@@H]3CC[C@H]4CC(=O)CC[C@]4(C)C3=CC[C@]2(C)[C@@]1(O)C(=O)CN1CCN(c2ccccn2)CC1.Cl.Cl.O [Example 44, 17α-hydroxy-16β-methyl-21-[4-(2-pyridinyl)-1-piperazinyl]-5α-pregn-9(11)-ene-3,20-dione dihydrochloride hydrate]	75	
CCN(CC)c1cc(N2CCN(CC(=O)[C@@]3(O)CC[C@H]4[C@@H]5C[C@H](C)C6=CC(=O)C=C[C@]6(C)C5=CC[C@@]43C)CC2)nc(N(CC)CC)n1 [Example 63, 21-[4-[2,6-bis(diethylamino)-4-pyrimidinyl]-1-piperaz-inyl]-17α-hydroxy-6α-methylpregna-1,4,9(11)-triene-3,20-dione (E)-2-butenedioate (1:1) salt]		demonstrate inhibition of angiogenesis
C[C@]12CCC(=O)C=C1CC[C@@H]1[C@@H]2C(=O)C[C@@]2(C)[C@H]1CC[C@]2(O)C(=O)CN1CCN(c2ccccn2)CC1 [Example 20]	72	demonstrate inhibition of angiogenesis
C[C@]12CC[C@@H](O)C[C@H]1CC[C@@H]1[C@@H]2C(=O)C[C@@]2(C)[C@H]1CC[C@]2(O)C(=O)CN1CCN(c2ccccn2)CC1 [Example 99, 3α,17α-dihydroxy-21-[4-(2-pyridinyl)-1-piperazinyl]-5β-pregnane-11,20-dione dihydrochloride hydrate]		demonstrate inhibition of angiogenesis
COc1ccc(CCNCC(=O)[C@@]2(O)CC[C@H]3[C@@H]4C[C@H](C)C5=CC(=O)C=C[C@]5(C)[C@H]4[C@@H](O)C[C@@]32C)cc1OC [Example 34, 11β,17α-dihydroxy-21-[[2-(3,4-dimethoxy-phenyl)ethyl]amino]-6α-methylpregna-1,4-diene-3,20-dione hydrochloride]		demonstrate inhibition of angiogenesis
C[C@]12CCC(=O)C=C1CC[C@@H]1C2=CC[C@@]2(C)[C@H]1CC[C@]2(O)C(=O)CN1CCN(c2cc(N3CCCC3)nc(N3CCCC3)n2)CC1 [Example 64, 17α-hydroxy-21-[4-[2,6-bis(1-pyrrolidinyl)-4-pyrimidinyl]-1-piperazinyl]-pregna-4,9(11)-diene-3,20-dione (E)-2-butenedioate (1:1) salt]		demonstrate inhibition of angiogenesis
C[C@]12C[C@@H](O)[C@H]3[C@@H](CCC4=CC(=O)CC[C@@]43C)[C@@H]1CC[C@@H]2C(=O)CN1CCN(c2ccccn2)CC1.Cl.Cl [Example 36, 11α-hydroxy-21-[4-(2-pyridinyl)-1-piperazinyl]-pregn-4-ene-3,20-dione dihydrochloride]		demonstrate inhibition of angiogenesis
